According to patent publication US6602852B1, “Basic peptides and pharmaceutical compositions containing same” (NST NeuroSurvival Technologies, Ltd., priority 1998, dated 2003):

Columns and labels:
[1] = tested on: Human Umbilical Vein Endothelial Cells (HUVEC); settings: 500 ng of compound, 40 minutes
Method: HUVEC (CC-2517, obtained from Clonetics, Walkersville, Md.) were grown on tissue culture flasks in Endothelial cell medium (EGM-2 Bulletkit, CC 3162, Clonetics). Mid-confluent cultures were harvested using Trypsine/EDTA solution (CC-5012, Clonetics). The cells were rinsed twice with PBS containing 2% BSA and kept on ice. Samples of 10^6 cells were tested for binding.
The reactions were incubated at room temperature for 40 minutes and then 400 μl of TBS-BSA were added and cells were collected by centrifugation at 3000×g for 3 minutes. Cells were washed in 1 ml of TBS-BSA and centrifuged as before and then suspended in 100 μl of TBS-BSA containing streptavidin conjugated to flourescein (FITC) for detection of the bound biotinylated compound. […] Thereafter, 400 μl of TBS-BSA were added and cells were centrifuged and washed again with 1 ml of TBS-BSA as before and then resuspended in 400 μl of TSS and taken for FACS analysis.
The FACS analysis was performed on Beckton-Dickinson cell sorter, using lysis II software. Excitation was at 488 nm and emission for FITC detection was a 535 nm.
A dot plot analysis was done for each treatment.

[2] = tested on: Cardiolipin (CL) / anti β2GPI
Method: Antiphospholipid antibodies (APLA) comprise a family of antibodies characterized by their reactivity with negatively charged phospholipids in vitro. The target or many anti-phospholipid antibodies is either a complex between anionic phospholipid and the plasma protein Apolipoprotein-H (β2GPI) or the protein β2GPI alone bound to PS (McNeil et al., 1990, Matsurra et al., 1994). […] The assay was performed as essentially described above for anti CL ELISA with several modifications. […] Following washes, the wells were incubated for 1 hour with 1/10000 of Peroxidase-conjugated affinity purified rabbit anti goat IgG (Jackson Immunoresearch lab. PA) in PBS/BSA buffer. Washes and development were as described for anti CL ELISA. In the following experiments, CL coated wells were incubated with 1/500 dilution or affinity purified goat anti-human β2GPI in 10% normal plasma (as a source for β2GPI protein and buffering condition).

Cardiolipin (CL) = tested on: Cardiolipin (CL)
Method: As control, wells were coated with ethanol only. The coated plates were washed 3 times with 100 ul of blocking buffer (PBS containing 0.3% gelatin (Sigma) and 1 mM EDTA) to block non specific binding. A 5 min incubation time was used between each wash. Normal plasma (Ilex, Italy, 84670-11) and Lupus plasma (either from Gradipore, Australia, LAHP-1, or from Biopool, Ventura, Calif.) were prepared according to the producer instruction. The plasma was diluted 1/10 in the blocking buffer and was added to the CL and ethanol coated wells. Binding of different NST 300 compounds to CL was performed by addition of serial dilutions of NST compounds (prepared in the plasma/blocking buffer solution) to the CL or ethanol coated wells. Following 3 hr incubation, the plates were washed twice with PBS/BSA buffer (0.4% bovine serum albumin (BSA) in PBS). For detection of anticardiolipin binding property of the tested plasma, the plates were incubated with a 1/10000 dilution of Peroxidase-conjugated affinity purified Goat anti-human IgG (Jackson Immunoresearch lab.) in PBS/BSA buffer for 1 hour. The plates were then washed 3 times with PBS/BSA buffer, and color reaction was developed by incubation with 100 ul of 0-phenylenediamine (OPD) dihydrochloride (Sigma p-7288) at a concentration of 0.4 mg/ml in 0.05 M phosphate citrate buffer, pH 5.0 supplemented, with 4 ul of 30% hydrogen peroxide (Aldrich) for 10 ml mixture. To detect the level of NST 300 compound that was bound to CL, parallel wells were incubated with streptavidin conugated to OPD (SA-OPD, Jackson Immunoresearch lab.), that specifically recognize the biotinylated NST 300 compound. The resulting colour changes were recorded at […] using a Bio Tek Elx800 Eliza reader.

Myristate-KKKKKRFSFKKSFKLSGFSFKKNKKK (SEQUENCE ID NO. 2)-(biotin) [NST302]
cells FITC positive [1]: About 70%
concentration of complete inhibition of anti β2GPI binding to CL ([2]; 10% normal plasma): 50 µM
concentrations giving significant displacement of anti β2GPI from CL ([2]; 10% normal plasma): 0.1 to 50 µM
inhibition of anti β2GPI binding to CL ([2]; FIG. 6c): Complete inhibition
concentration at which binding to CL reached saturation (Cardiolipin (CL); CL coated ELISA wells): about 0.3 μM
concentration from which displacement of Lupus plasma binding to CL starts (Cardiolipin (CL); Lupus plasma from Gradipore): 0.1 µM
concentration of maximum effect of displacement of Lupus plasma from CL (Cardiolipin (CL); Lupus plasma from Gradipore): 2.5 µM
